Results from US20130131018A1, “SUBSTITUTED ISOQUINOLINES AND THEIR USE AS TUBULIN POLYMERIZATION INHIBITORS” (Exonhit S.A., priority 2010, published 2013).
pIC50: −log10 of the molar value. Where a name gives a salt, the structure may show the parent alone. Read-outs that look alike come from different tables or passages of the source.

What was measured:
K562 cell line = test: MTT assay: cytotoxicity against the K562 cell line; format: cell-based; conditions: Homo sapiens, K562 cells, 72 h, growth inhibition
How it was run: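 Fifteen thousand K562 cells per well were exposed in triplicate to a compound dilution series for 72 h at 37 °C, 5% CO2. Viability was measured by MTT absorbance at 550 nm relative to untreated control, and IC50 was obtained by nonlinear regression.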

purified tubulin = target: T1, purified tubulin (Sus scrofa, UniProt P02550+P02554); test: Tubulin polymerisation assay (CytoDYNAMIX Screen kit, absorbance at 340 nm); format: biochemical; conditions: 5 μM compound, 4 mg/ml tubulin; read-out: % Inhibition of tubulin polymerization at 5 μM
T1 construct: purchased Cytoskeleton #BK006P
T1 sequence (P02554 whole entry): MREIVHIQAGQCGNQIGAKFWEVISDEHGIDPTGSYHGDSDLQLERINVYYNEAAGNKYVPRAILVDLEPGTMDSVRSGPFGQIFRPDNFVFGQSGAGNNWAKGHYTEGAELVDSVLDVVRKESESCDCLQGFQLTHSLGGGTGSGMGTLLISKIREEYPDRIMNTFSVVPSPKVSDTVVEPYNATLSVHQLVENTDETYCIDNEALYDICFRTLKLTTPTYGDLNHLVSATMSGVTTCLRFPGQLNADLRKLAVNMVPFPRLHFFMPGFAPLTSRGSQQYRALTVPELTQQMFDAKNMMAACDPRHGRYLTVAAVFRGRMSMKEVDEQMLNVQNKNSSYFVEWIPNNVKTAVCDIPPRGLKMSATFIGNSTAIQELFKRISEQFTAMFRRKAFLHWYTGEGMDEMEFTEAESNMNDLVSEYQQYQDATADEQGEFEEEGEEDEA
T1 sequence (P02550 whole entry): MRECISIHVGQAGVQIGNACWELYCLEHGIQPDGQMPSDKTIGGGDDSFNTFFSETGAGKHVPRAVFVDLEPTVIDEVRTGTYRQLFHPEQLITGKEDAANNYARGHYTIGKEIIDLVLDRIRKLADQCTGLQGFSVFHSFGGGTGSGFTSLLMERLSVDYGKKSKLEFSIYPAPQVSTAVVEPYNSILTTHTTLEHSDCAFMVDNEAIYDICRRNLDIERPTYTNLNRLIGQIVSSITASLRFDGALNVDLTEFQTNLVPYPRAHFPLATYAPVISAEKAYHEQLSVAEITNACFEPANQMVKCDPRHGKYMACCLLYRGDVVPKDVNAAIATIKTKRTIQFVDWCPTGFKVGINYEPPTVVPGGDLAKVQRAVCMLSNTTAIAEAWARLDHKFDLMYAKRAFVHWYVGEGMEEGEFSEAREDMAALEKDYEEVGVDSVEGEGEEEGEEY
Protocol: The polymerization of purified tubulin was monitored spectrophotometrically by the change in absorbance at 340 nm using the CytoDYNAMIX Screen kit (#BK006P, Cytoskeleton) according to the instructions of the manufacturer. […] The absorbance was measured at 1 minute intervals for 60 minutes. The test compound was added to a 4 mg/ml tubulin solution containing 10% glycerol and 1 mM GTP in Buffer 1 (Buffer 1: 80 mM PIPES; 2 mM MgCl2; 0.5 mM EGTA, pH 6.9). Increased absorbance indicates increase in microtubule formation from tubulin heterodimers.

[1] = target: T2, colchicine site on tubulin (biotinylated porcine tubulin) (Sus scrofa, UniProt P02550+P02554); test: Tubulin displacement assay (3H-colchicine radioligand binding, SPA); conditions: competition with 50 nM [3H]-colchicine, 4 h at 37° C.; read-out: IC50
T2 construct: biotin (chemical label)
T2 sequence (P02554 whole entry): as the sequence (P02554 whole entry) above
T2 sequence (P02550 whole entry): as the sequence (P02550 whole entry) above
Protocol: The assay was developped following the method published by Tahir et al. (2001) and others using biotinylated porcine tubulin captured to streptavidin coated yttrium silicate scintillation proximity assay (YSi SPA) beads in a PIPES/EGTA/MgCl2/GTP buffer. […] IC50s were determined using GraphPad Prism Version 5.01 and the sigmoidal dose response with variable slope curve fit.

[2] = tested on: Endothelial cells (HUVEC); test: Neovessels formation inhibition (capillary tube formation on Matrigel); format: cell-based; conditions: Homo sapiens, HUVEC on Matrigel, compounds overnight
Protocol: The capability of compounds to inhibit the formation of capillaries was evaluated in vitro. Twenty thousand Endothelial cells (HUVEC) were placed on a Matrigel matrix and allowed to form capillary tubes in the presence or absence of the compounds overnight. The cells were stained with calcein AM, and the effect of the compounds on capillary tube formation was assessed using an inverted fluorescent microscope (Nikon). The reference compound used in this assay AVE-8063 is 3-amino-deoxycombretastatin A-4.

HUVEC = test: Pre-established vessels disruption (capillary tubes on Matrigel); format: cell-based; conditions: Homo sapiens, HUVEC tubes formed 5 hours, then compounds overnight
Protocol: To explore the effect of the compounds on pre-established vasculature, twenty thousand cells (HUVEC) were seeded and incubated over Matrigel for 5 hours to allow the capillary tubes to form. Then, compounds were added and incubated overnight. The disappearance of existing vasculature was monitored with fluorescent microscopy.

blood flow = conditions: animal studies, cited from earlier work
[3] = phase 1 studies, cited from earlier work

| SMILES | pIC50 (K562 cell line) | inhibition at 5 µM (purified tubulin) | pIC50 [1] | pIC50 ([2]; read-out: Neovessels Formation Inhibition Number of Branch Junctions IC50) | pIC50 ([2]; read-out: Neovessels Formation Inhibition Total Tubule Length IC50) | pIC50 (HUVEC; read-out: Pre-established Vessels Disruption Number of Branch Junctions IC50) | pIC50 (HUVEC; read-out: Pre-established Vessels Disruption Total Tubule Length IC50) | blood flow decrease in heart, kidney, and intestine (blood flow; heart, kidney, intestine) | blood flow reduction in spleen, skeletal muscle, and brain (blood flow; spleen, skeletal muscle, brain) | blood flow reduction in the tumor (blood flow; tumor) | dose-limiting toxicities ([3]; administered intravenously) | Responses seen in [3] |
| --- | --- | --- | --- | --- | --- | --- | --- | --- | --- | --- | --- | --- |
| CCCOc1c(OC)cc(C(=O)c2cncc3c(O)c(OCC)ccc23)cc1OC [Compound 67, (3,5-Dimethoxy-4-propoxyphenyl)(7-ethoxy-8-hydroxyisoquinolin-4-yl)methanone hydrochloride] | 8.33 | 10% | 7.41 | 8.42 | 8.32 | 8.04 | 7.90 | – | – | – | – | – |
| COc1ccc(/C=C\c2cc(OC)c(OC)c(OC)c2)cc1OP(=O)([O-])[O-].[Na+].[Na+] [CA4P, CA-4 disodium phosphate] | – | – | – | – | – | – | – | no significant decrease | less than 7 fold | 100 fold | dyspnea, neurological disturbances (syncope, motor neuropathy, ataxia), and cardiac and intestinal ischemia | thyroid cancer, sarcoma, and adrenocortical carcinoma |
